# Experimental data taken from patent publication US20060008506A1, “Method for preparing therapeutic ophthalmic articles using compressed fluids” (priority 2004, published 2006).
# Assays:
# inflammatory processes = details: cited from earlier work
# [1] = in vitro release kinetic study of impregnated Focus Dailies (Nelfilcon A) hydrogel contact lenses after three-month storage; format: physicochemical; details: for maximum cumulative amount of released Flurbiprofen: CO2, 41° C., after three months storage in 0.9% NaCl
# Protocol: Later on, the impregnated ophthalmic article was placed in 5 ml of physiological serum (saline solution, 0.9% NaCl) inside a closed vessel. This vessel was subsequently placed inside a temperature controlled bath (at 37° C.), in order to carry out the in vitro sustained release kinetic study of the drug (Flurbiprofen). At regular time intervals (shorter time intervals at the beginning), 3 ml of the release solution (containing the released drug) were removed from the vessel and replaced by 3 ml of fresh physiological serum. The concentration of Flurbiprofen was determined by spectroscopy for each sample collected. Two Focus® […]® (Ciba Vision, Ga., USA) hydrogel contact lenses (non ionic, high hydration, FDA Group II, 69% water+31% Nelfilcon A copolymer) were separately treated in two different experiments (I and II) by means of the above-mentioned third embodiment of the process, in accordance with the invention and according to FIG. 3. In both experiments, the ophthalmic articles processed were impregnated with Flurbiprofen (CAS[5104-49-4], 97% purity, Sigma-Aldrich) using Carbon Dioxide (99.998% purity, Air Liquide). No co-solvent was added and no stirring was employed. In experiment I, the operating conditions were 41° C. and 90 bar, while in experiment II the operating conditions were 41° C. and 120 bar. In both experiments, drug solubilization was carried out for 1 hour and 30 minutes, and impregnation was carried out for 1 hour. After impregnation, the vessel was slowly depressurized (for 15 minutes) and the compressed fluid (Carbon Dioxide) was removed. The high pressure vessel was then removed from the temperature controlled bath, opened and the ophthalmic article was recovered, impregnated with Flurbiprofen. Afterwards, the two ophthalmic articles were stored and preserved in physiological serum (saline solution, 0.9% NaCl) in closed vessels, for three months. After this period, in vitro kinetic studies were carried out in respect of Flurbiprofen release, following the experimental procedures already described at Example 1.
# baboons = details: single dose of 125 mg/Kg; cited from earlier work
# [2] = analysis of preservation and storage media after three-month storage of impregnated Focus Dailies lenses; format: physicochemical; details: for effective total mass of Flurbiprofen impregnated in the article: sum of storage and release amounts; for mass of Flurbiprofen released in preservation and storage media: three-month storage in 0.9% NaCl
# Protocol: Afterwards, the two ophthalmic articles were stored and preserved in physiological serum (saline solution, 0.9% NaCl) in closed vessels, for three months. After this period, in vitro kinetic studies were carried out in respect of Flurbiprofen release, following the experimental procedures already described at Example 1.
# The maximum cumulative amount of released Flurbiprofen was about 0.007 mg for experiment I and about 0.035 mg for experiment II. These amounts were actually attained after 7 hours of release kinetic studies. […] However, in these cases it cannot be assumed that these values correspond to the total amount of Flurbiprofen impregnated in each ophthalmic article, given that part of the impregnated drug was released in the preservation medium during the three-month storage period. Preservation and storage media were also analyzed and the mass of Flurbiprofen released therein was about 0.0030 mg for experiment I and about 0.0025 mg for experiment II. Therefore, we can assume that the effective total mass of Flurbiprofen impregnated in the two articles was 0.0100 mg and 0.0375 mg respectively for experiments I and II.
# [3] = in vitro sustained release kinetic study of impregnated Focus Monthly (Vifilcon A) hydrogel contact lens in physiological serum; format: physicochemical; details: 90.0 bar, 40.0° C.; for release time at which maximum cumulative amount was attained: 0.9% NaCl at 37° C.; for maximum cumulative amount of released Flurbiprofen: 30 min
# Protocol: A Focus® Monthly® (Ciba Vision, Ga., USA) hydrogel contact lens (ionic, high hydration, FDA Group IV, 55% water+45% Vifilcon A copolymer) was treated by means of the above-mentioned first embodiment of the process, in accordance with the invention and according to FIG. 1. The ophthalmic article was contacted in a sealed high pressure vessel with a mixture of compressed carbon Dioxide (99.998% purity, Air Liquid), Flurbiprofen (CAS[5104-49-4], 97% purity, Sigma-Aldrich) and Ethanol (CAS[64-17-5], 99.8% purity, Fluka), as co-solvent (5% molar in respect of carbon Dioxide). The operating conditions were 90.0 bar and 40.0° C. No stirring was employed. After a 30 minute processing time, the vessel was slowly expanded (for 1.5 minutes) and the compressed fluid (carbon Dioxide) was removed. Part of the co-solvent (Ethanol) was dragged out of the system by the Carbon Dioxide, while its remaining part precipitated, as a liquid, to the bottom of the high pressure vessel. The high pressure vessel was then removed from the temperature controlled bath, opened and the ophthalmic article was recovered, impregnated with Flurbiprofen. Later on, the impregnated ophthalmic article was placed in 5 ml of physiological serum (saline solution, 0.9% NaCl) inside a closed vessel. This vessel was subsequently placed inside a temperature controlled bath (at 37° C.), in order to carry out the in vitro sustained release kinetic study of the drug (Flurbiprofen). At regular time intervals (shorter time intervals at the beginning), 3 ml of the release solution (containing the released drug) were removed from the vessel and replaced by 3 ml of fresh physiological serum. The concentration of Flurbiprofen was determined by spectroscopy for each sample collected. A Focus® Monthly® (Ciba Vision, Ga., USA) hydrogel contact lens (ionic, high hydration, FDA Group IV, 55% water+45% Vifilcon A copolymer) was treated by means of the above-mentioned first embodiment of the process, in accordance with the invention and according to FIG. 1. The ophthalmic article was contacted in a sealed high pressure vessel with a mixture of Carbon Dioxide (99.998% purity, Air Liquide) and Flurbiprofen (CAS[5104-49-4], 97% purity, Sigma-Aldrich). No co-solvent was added. The operating conditions were 90.0 bar and 40.0° C. No stirring was employed. After a 30 minute processing time, the vessel was slowly expanded (for 15 minutes) and the compressed fluid (Carbon Dioxide) was removed. The high pressure vessel was then removed from the temperature controlled bath, opened and the ophthalmic article was recovered, impregnated with Flurbiprofen. The in vitro kinetic studies concerning the release of Flurbiprofen were conducted in accordance with the experimental procedures already described at Example 1.
smiles,measurement,setting,value
CC(C(=O)O)c1ccc(-c2ccccc2)c(F)c1 (stereo not shown) [Flurbiprofen],minimum amount of Flurbiprofen to be kept in the eye to prevent inflammatory processes,inflammatory processes,0.03 to 0.15 µg
same,maximum cumulative amount of released Flurbiprofen,"[1]; Example 3, experiment I: Focus Dailies lens, 90 bar",about 0.007 mg
same,maximum cumulative amount of released Flurbiprofen,"[1]; Example 3, experiment II: Focus Dailies lens, 120 bar",about 0.035 mg
same,release time at which maximum cumulative amounts were attained,"[1]; Example 3, experiments I and II",7 h
same,acute toxicity,baboons,no acute toxicity
same,effective total mass of Flurbiprofen impregnated in the article,"[2]; Example 3, experiment I (41° C., 90 bar)",0.0100 mg
same,mass of Flurbiprofen released in preservation and storage media,"[2]; Example 3, experiment I (90 bar)",about 0.0030 mg
same,effective total mass of Flurbiprofen impregnated in the article,"[2]; Example 3, experiment II (41° C., 120 bar)",0.0375 mg
same,mass of Flurbiprofen released in preservation and storage media,"[2]; Example 3, experiment II (120 bar)",about 0.0025 mg
same,release time at which maximum cumulative amount was attained,[3]; Example 1: CO2 + ethanol co-solvent,24 h
same,maximum cumulative amount of released Flurbiprofen,"[3]; Example 1: Focus Monthly lens impregnated with CO2 + 5% molar ethanol co-solvent, release in 5 ml 0.9% NaCl at 37° C.",about 0.25 mg
same,release time at which maximum cumulative amount was attained,"[3]; Example 2: CO2, no co-solvent",6 h
same,maximum cumulative amount of released Flurbiprofen,"[3]; Example 2: Focus Monthly lens impregnated with CO2, no co-solvent, release in 0.9% NaCl at 37° C.",about 0.11 mg
